Reference: patent US5830902A, “Quinuclidine derivative having tricyclic hetero condensed ring” (Yamanouchi Pharmaceutical Co., Ltd., priority 1995, dated 1998)
Where a name gives a salt, the structure may show the parent alone. Read-outs that look alike come from different tables or passages of the source.

What was measured:
[1] = test system: enzyme located at a downstream stage of the cholesterol biosynthesis system; conditions: background art; cited from earlier work
[2] = Cholesterol lowering action in hamster; type: in vivo; conditions: male golden hamsters; 50 mg/kg in 0.5% methyl cellulose, administered by force; 5 days; blood 2 hours after final administration
Protocol: C. Cholesterol lowering action in hamster
Male golden hamsters (130 to 150 g) which have been treated by reversing night and day since 12 or more days before the commencement of administration were divided into groups 4 days before the administration in such a manner that the cholesterol value became the same among the groups. Each drug was prepared as a 0.5% methyl cellulose solution and administered by force in a dosage of 50 mg/kg. In this case, the liquid volume was 10 ml/kg.
The administration was carried out continuously for 4 days at around A.M. 11:00 under satiated condition and then on the fifth day after 16 hours of fasting. After 2 hours of the final administration, blood samples were collected from the abdominal vena cava under diethyl ether anesthesia and their cholesterol values were measured using an automatic analyzer (Hitachi 736).

[3] = target: T1, human squalene synthase (Homo sapiens, UniProt P37268); test: Test on human squalene synthase inhibition (HepG2 microsomal fraction); type: biochemical
T1 construct: endogenous in cells; host or cells: HepG2 human hepatoma cells (microsomal fraction)
T1 sequence (P37268 1-417): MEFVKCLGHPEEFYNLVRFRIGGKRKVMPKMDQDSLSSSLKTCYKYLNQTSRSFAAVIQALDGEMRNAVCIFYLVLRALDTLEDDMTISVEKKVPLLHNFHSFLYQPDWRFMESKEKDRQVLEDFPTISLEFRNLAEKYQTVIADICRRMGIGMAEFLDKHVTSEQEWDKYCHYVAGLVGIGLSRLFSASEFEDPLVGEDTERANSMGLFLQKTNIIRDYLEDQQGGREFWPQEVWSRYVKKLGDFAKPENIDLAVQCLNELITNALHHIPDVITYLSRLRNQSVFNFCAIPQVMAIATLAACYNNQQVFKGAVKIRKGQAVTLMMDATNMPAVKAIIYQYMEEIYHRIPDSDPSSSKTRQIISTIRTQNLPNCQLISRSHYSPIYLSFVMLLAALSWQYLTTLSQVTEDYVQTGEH
Protocol: A. Test on human squalene synthase inhibition
(1) Preparation of squalene synthase from human hepatoma cells
Human hepatoma cells (HepG2 cells) were cultured using DMEM containing 10% FBS until a single layer was formed, and then the medium was replaced by DMEM supplemented with 10% human lipoprotein deficient serum (LPDS) to carry out 24 hours of culturing. The cells were washed twice with PBS, collected using a Rubber Policeman and subjected to centrifugation. The resulting precipitate was homogenized in five volumes of 50 mM Hepes buffer (pH 7.5) containing 5 mM EDTA and centrifuged at 20,000×g for 15 minutes. The supernatant was again subjected to the same centrifugation. The supernatant was subjected to 1 hour of centrifugation at 100,000×g, and the microsomes obtained were suspended in the same buffer and used in the test as a HepG2 squalene synthase fraction.
(2) Measurement of squalene synthase inhibiting activity
A dimethyl sulfoxide solution of each drug to be tested was added to a solution of the squalene synthase fraction prepared above (protein 10 ng, 50 mM Hepes buffer (pH 7.5)), 11 mM NaF, 5.5 mM MgCl2, 3 mM DTT, 1 mM NADPH, 1 mM pyrophosphate and 2.5 μM ^3 H-FPP, and the mixture was adjusted to a total volume of 0.2 ml and shaken at 30° C. for 20 minutes to effect the reaction. The reaction was terminated by adding 100 μl of 20% potassium hydroxide-50% ethanol solution, and the reaction solution was heated at 65° C. for 30 minutes. The un-saponified material was extracted with petroleum ether, and 1/3 volume thereof was subjected to measurement by a liquid scintillation counter. The ^3 H radioactivity of the un-saponified material was regarded as products down stream of squalene in the cholesterol biosynthesis system, and the squalene synthase inhibiting action was calculated by comparing ^3 H radioactivities of the test group and control group.
In addition, concentration of each compound of the present invention to inhibit 50% of squalene synthase (IC50 value) was obtained by calculation.

| SMILES | desmosterol accumulation / cataracts [1] | Lowering ratio (cholesterol) [2] | IC50 [3] | IC50 ([3]; squalene synthase derived from human hepatoma (HepG2) cells, 2.5 μM 3H-FPP, 30° C., 20 minutes, read-out: IC50 value of squalene synthase inhibiting activity) |
| --- | --- | --- | --- | --- |
| CCN(CC)CCOc1ccc(C(O)(Cc2ccc(Cl)cc2)c2ccc(C)cc2)cc1 (stereo not shown) [triparanol] | accumulates desmosterol which causes the cataracts |  |  |  |
| C(/COc1ccc2c(c1)[nH]c1ccccc12)=C1/CN2CCC1CC2.Cl [Example 2, (Z)-3-[2-(Carbazol-2-yloxy)ethylidene]quinuclidine hydrochloride] |  | 39% | 59 nM |  |
| F/C(COc1ccc2c(c1)[nH]c1ccccc12)=C1/CN2CCC1CC2 [Example 1, (E)-3-[2-(Carbazol-2-yloxy)-1-fluoroethylidene]quinuclidine hydrochloride] |  | 57% |  | 79 nM |
| CN1c2ccccc2Sc2cc(COC3CN4CCC3CC4)ccc21.Cl (stereo not shown) [Example 17, 3-(10-Methylphenothiazin-3-ylmethoxy)quinuclidine hydrochloride] |  | 46% | 85 nM |  |
